{"source": "patent US20090305993A1", "about": "“METHODS AND COMPOSITION FOR THE TREATMENT OF GASTROINTESTINAL DISORDERS” (IRONWOOD PHARMACEUTICALS, INC., priority 2006, published 2009)", "key": {"[1]": {"test_system": "adult male Wistar rats", "test": "basal visceral nociception (visceromotor response to CRD)", "type": "in vivo, rat", "procedure": "The effect of SEQ ID NO:3 on basal visceral nociception in a model of water avoidance stress-induced visceral hyperalgesia in adult male Wistar rats was tested. The stress involved confining rats to a platform surrounded by water for a period of 1 hour and then measuring their visceromotor response to colonic distension using electromyography (EMG).\nElectrode leads were then tunneled subcutaneously and externalized laterally for future access. Following surgery, rats were housed in pairs and allowed to recover for at least 7 days. On the day of the experiment, animals were lightly anesthetized with halothane, and a lubricated latex balloon (6 cm) was inserted intra-anally into the descending colon. Animals were allowed to recover for 30 minutes, and colorectal distension (CRD) was initiated. The CRD procedure consisted of graded intensities of phasic CRD (10, 20, 40, 60 mmHg; 20 s duration; 4 min inter-stimulus interval). Visceromotor response (VMR) to CRD was quantified by measuring EMG activity. […] Animals were allowed 1 hour recovery and then SEQ ID NO:3 or vehicle was orally administered. At 1 hour following administration of SEQ ID NO:3 or vehicle CRD was repeated. […] The mean value (+/−SEM) of in vehicle and SEQ ID NO:3 treated groups (n=7 for each group) is graphically depicted in FIG. 7e."}, "[2]": {"target": "T1, carboxypeptidase A (Homo sapiens, UniProt P15085)", "T1 sequence (P15085 111-419)": "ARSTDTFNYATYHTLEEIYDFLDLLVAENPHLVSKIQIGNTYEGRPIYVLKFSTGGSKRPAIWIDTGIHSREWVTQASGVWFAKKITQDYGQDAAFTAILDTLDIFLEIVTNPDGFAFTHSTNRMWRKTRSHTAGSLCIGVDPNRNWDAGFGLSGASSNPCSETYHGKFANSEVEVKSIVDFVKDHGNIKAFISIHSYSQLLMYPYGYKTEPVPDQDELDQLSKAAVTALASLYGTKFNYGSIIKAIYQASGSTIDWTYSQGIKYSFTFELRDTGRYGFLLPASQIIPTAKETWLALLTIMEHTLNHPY", "test": "in vitro proteolytic stability, carboxypeptidase A", "procedure": "The stability of SEQ ID NO:3 in the presence of several mammalian digestive enzymes was determined. SEQ ID NO:3 was exposed to a variety of in vitro conditions including digestive enzymes and low ph environments designed to simulate gastric fluid. SEQ ID NO:3 was incubated with chymotrypsin, trypsin, pepsin, aminopeptidase, carboxypeptidase A, and simulated gastric fluid (sgf) at ph 1.0. Samples were collected at 0, 3, and 24 h for all conditions except pepsin digestion and the SGF. For the latter two conditions, samples were obtained at 0, 1, and 3 h. Negative control samples were prepared for initial and final time points. A separate, positive activity control was run in parallel to SEQ ID NO:3. All samples were analyzed by LC/MS\nFive (5) μL of a 40 μg/mL carboxypeptidase inhibitor (carboxypeptidase inhibitor from potato tuber (Sigma-Aldrich, C0279) stock was added to each control sample (0 and 24 h), for a final concentration of 0.4 μg/mL. All control and test (0, 3 and 24 h) samples were incubated at 37° C. for 5 min. Twenty (20) μL of a 0.01 mg/mL carboxypeptidase A (Carboxypeptidase A from human pancreas; Sigma-Aldrich, C5358) stock was added to each sample. The samples were returned to the 37° C. water bath. The reaction was quenched with 5 μL of a 40 μg/mL carboxypeptidase inhibitor at the proper time point. No extra carboxypeptidase inhibitor was added to the control samples since there was already inhibitor present. Samples were subsequently flash frozen in liquid nitrogen, and stored at −80° C. until analysis. Upon analysis, samples were thawed and transferred to a 1 mL 96-well deep microtiter plate. […] These standards were used to generate a standard curve for quantification of samples. When necessary, the standard curves were also used to calculate the concentration of the corresponding digestion product. Ten (10) μL injections were made of each sample and standard.\nTo further study the SEQ ID NO:3 carboxypeptidase A digestion product, samples of 0.01 mg/mL SEQ ID NO:3 were prepared in the carboxypeptidase A reaction buffer at a total volume of 500 μL in 2 mL eppendorf tubes. Triplicate samples were prepared for the following time points: 0, 15, 30, 60, 120, 180 and 240 min. The samples were incubated at 37° C. for 5 min. Twenty (20) μL of a 0.01 mg/mL carboxypeptidase A stock were added to each sample and returned to the 37° C. water bath. The reactions were quenched with 5 μL of a 40 μg/mL carboxypeptidase inhibitor at the proper time points. Samples were subsequently flash frozen in liquid nitrogen, and stored at −80° C. until analysis. Upon analysis, samples were thawed and transferred to a 1 mL 96-well plate. Standards of SEQ ID NO:3 were prepared in carboxypeptidase A reaction buffer at 0.625, 1.25, 2.50, 5.00, and 10.00 μg/mL concentrations. These standards were used to generate a standard curve for quantification of samples. When necessary, the standard curves were also used to calculate the concentration of the corresponding digestion product. Ten (10) μL injections were made of each sample and standard. If the formation of a digestion product was evident, then a spectral analysis was used to determine the mass of the digestion product, and predict its possible identity."}}, "note": "Where a SMILES comes first, the peptide text is derived from it. Bridges are numbered along the chain shown (N, C = ends).", "data": [{"smiles": "C[C@@H]1NC(=O)[C@@H]2CCCN2C(=O)[C@H](CC(N)=O)NC(=O)[C@@H]2CSSC[C@H](N)C(=O)N[C@H]3CSSC[C@H](NC1=O)C(=O)N[C@@H]([C@@H](C)O)C(=O)NCC(=O)N[C@H](C(=O)N[C@@H](Cc1ccc(O)cc1)C(=O)O)CSSC[C@H](NC(=O)[C@H](Cc1ccc(O)cc1)NC(=O)[C@H](CCC(=O)O)NC3=O)C(=O)N2", "note": "[SEQ ID NO:3] (H-CCEYCCNPACTGCY-OH; disulfide 1-6, 2-10, 5-13; N-terminus and C-terminus assumed)", "values": [{"measurement": "basal visceral nociception", "setting": "[1]; oral 3 μg/kg", "value": "no effects"}, {"measurement": "basal visceral nociception", "setting": "[1]; oral 30 μg/kg, versus vehicle, FIG. 7e", "value": "increased basal visceral nociception"}, {"measurement": "proteolysis by carboxypeptidase A", "setting": "[2]; 37° C., FIG. 13a, 13b", "value": "some proteolysis"}, {"measurement": "Cleavage of SEQ ID NO: 3 by proteolytic substance", "setting": "[2]; Carboxypetidase A, 37° C., up to 24 h", "value": "Yes"}, {"measurement": "average calculated product concentrations", "setting": "[2]; T3 h samples", "value": "1.3 (+/−0.06) μg/mL"}, {"measurement": "average calculated product concentrations", "setting": "[2]; T24 h samples", "value": "1.3 (+/−0.04) μg/mL"}, {"measurement": "calculated concentrations of parent", "setting": "[2]; all samples", "value": "8.4 (+/−1.2) μg/mL"}, {"measurement": "average concentration", "setting": "[2]; carboxypeptidase A digestion of SEQ ID NO:3, T0", "value": "5115 (+/−121) nM"}, {"measurement": "average concentration", "setting": "[2]; carboxypeptidase A digestion of SEQ ID NO:3, T240 (240 min)", "value": "4438 (+/−188) nM"}, {"measurement": "calculated concentrations for the products", "setting": "[2]; time 0 control (with inhibitor)", "value": "0.8 (+/−0.02) μg/mL"}, {"measurement": "calculated concentrations for the products", "setting": "[2]; time 0 samples", "value": "0.8 (+/−0.01) μg/mL"}]}]}
